Structures are written as SMILES. Several values for one entry are separate records, joined by “and”; a condition that tells them apart may be missing. Equal values may be shown once. Numbers after ± are expanded uncertainties.

The conditions of this series: Liquid.

In the case of `COCC(C)O` (stereo unspecified) [1-methoxy-2-propanol], the “vapor or sublimation pressure” value is 50.45 ± 1.2 kPa and 48.26 ± 1.2 kPa and 48.55 ± 1.2 kPa (373.15 K); 232.13 ± 3 kPa [middle of 4 runs] (423.15 K); 739.81 ± 9.4 kPa (473.15 K).

As to `NCCO` [2-aminoethan-1-ol], the “vapor or sublimation pressure” value runs as follows: (373.15 K) 6.16 ± 1 kPa and 6.17 ± 1 kPa and 6.64 ± 1 kPa; (423.15 K) 50.62 ± 1.2 kPa and 52.71 ± 1.2 kPa and 51.97 ± 1.2 kPa.

Turning to `O=Cc1ccco1` [2-furaldehyde], the “vapor or sublimation pressure” value reads like this: (373.15 K) 14.62 ± 1 kPa and 14.65 ± 1 kPa; (423.15 K) 77.51 ± 1.4 kPa and 76.13 ± 1.4 kPa.

As to `CC(C)(C)O` [2-methylpropan-2-ol], the “vapor or sublimation pressure” value was 192.46 ± 2.5 kPa and 191.18 ± 2.5 kPa (373.15 K); 818.16 ± 10 kPa and 816.37 ± 10 kPa (423.15 K).

Consider `C=CCO` [2-propenol], for which the “vapor or sublimation pressure” value was 113.1 ± 1.7 kPa and 109.94 ± 1.7 kPa and 109.95 ± 1.7 kPa (373.15 K); 520.67 ± 6.5 kPa and 518.64 ± 6.5 kPa and 518.11 ± 6.5 kPa (423.15 K).

On to `CCCCO` [butan-1-ol], for which the “vapor or sublimation pressure” value is 8.39 ± 1 kPa (333.15 K) and 110.26 ± 1.6 kPa (393.15 K).

For `CCCCOC(C)=O` [butyl ethanoate], the “vapor or sublimation pressure” value runs as follows: (373.15 K) 44.71 ± 1.2 kPa and 42.55 ± 1.1 kPa; (423.15 K) 195.63 ± 2.5 kPa and 188.81 ± 2.4 kPa and 191.33 ± 2.5 kPa; (473.15 K) 583.23 ± 7.3 kPa.

As to `O=C=O` [carbon dioxide], the “vapor or sublimation pressure” value stood at 1672.6 ± 21 kPa (248.15 K) and 3485.1 ± 43 kPa (273.15 K).

For `S=C=S` [carbon disulfide], the “vapor or sublimation pressure” value runs as follows: (248.15 K) 4.5 ± 1 kPa; (273.15 K) 17.3 ± 1 kPa.

On to `O=C=S` [carbonyl sulfide], for which the “vapor or sublimation pressure” value is, setting by setting: (248.15 K) 282.15 ± 3.6 kPa and 287.13 ± 3.7 kPa; (273.15 K) 638.23 ± 8 kPa and 651.42 ± 8.2 kPa.

Consider `CCOC(C)=O` [ethyl acetate], for which the “vapor or sublimation pressure” value was found to be 202.9 ± 2.6 kPa (373.15 K) and 687.53 ± 8.6 kPa (423.15 K).

`CCCCC` [pentane]: the “vapor or sublimation pressure” value (333.15 K) is 215.21 ± 2.8 kPa and the “vapor or sublimation pressure” value (393.15 K) is given as 917.75 ± 11 kPa.
